Read-outs that look alike come from different tables or passages of the source.
How the values were obtained:
Format in all cases: cell-based, human
MX-1 (breast carcinoma) = experiment: Cytotoxicity/growth inhibition assay, MX-1; settings: read-out: IC50 (MX-1)
Description: (§1) The human cancer cell lines DLD-1 (colorectal adenocarcinoma), LNCap (prostate carcinoma), and OVCAR-3 (ovarian carcinoma) were obtained from the American Type Culture Collection, Manassas, Va., U.S.A., and HL-60 (promyeloid myelocytic leukemia), MX-1 (breast carcinoma), P388, and P388ADR from the National Cancer Institute, Bethesda, Md., U.S.A. Carboplatin, doxorubicin, and melphalan were obtained from Sigma-Aldrich Chemical Company, St. Louis, Mo., U.S.A. The CellTiter-Glo assay kit was obtained from Promega Corporation, Madison, Wis., U.S.A., and the Cellular DNA Cytometric Analysis Reagent Kit from Roche Diagnostics Corporation, Indianapolis, Ind., U.S.A. Lambda DNA was obtained from New England Biolabs, Beverly, Mass., U.S.A., and SYBR-Gold from Molecular Probes, Inc., Eugene, Oreg., U.S.A. The DNeasy Tissue Kit was obtained from Qiagen Inc., Valencia, Calif., U.S.A., and AmpliTaq Gold DNA polymerase and PCR reagents from Applied Biosystems, Foster City, Calif., U.S.A. All products were used in accordance with manufacturer's directions. All assays were conducted in triplicate wells, with dimethyl sulfoxide (DMSO) solvent control. The extent of cell growth was expressed as a percentage of the signal from the solvent control wells.
(§2) Log-phase cells were trypsinized, collected by centrifugation, and resuspended in a small volume of fresh medium, and the density of viable cells was determined following Trypan Blue staining. Cells were diluted in fresh media (3×10^3 cells/mL for MX-1, 3×10^3 cells/mL for DLD-1, and 6×10^3 cells/mL for LNCap cells), the test compounds (concentrations between 0.1 and 200 μM, dissolved in DMSO, 50 μL) added immediately after dilution to achieve a final DMSO concentration of 0.5%, then the suspensions added at 150 μL/well to 96-well plates, and incubated for several hours to allow attachment in the case of adherent cells. The cells were cultured for approximately three doubling times (3 days for MX-1 and 4 days for DLD-1 and LNCap). The cells were then collected by centrifugation, and 100 μL of the culture supernatant was replaced by the CellTiter-Glo reagent. After incubation for 15 minutes at room temperature, and the plate was read with a luminometer.

[1] = tested on: DLD-1 (colorectal adenocarcinoma); experiment: Cytotoxicity/growth inhibition assay, DLD-1; settings: read-out: IC50 (DLD-1)
Description: as §1, §2

[2] = tested on: LNCap (prostate carcinoma); experiment: Cytotoxicity/growth inhibition assay, LNCap; settings: read-out: IC50 (LNCap)
Description: as §1, §2

[3] = MX-1 cells, 3 days culture, CellTiter-Glo, 0.1-200 μM tested
[4] = DLD-1 cells, 4 days culture, CellTiter-Glo, 0.1-200 μM tested
[5] = LNCap cells, 4 days culture, CellTiter-Glo, 0.1-200 μM tested

Structure (SMILES)	IC50 (MX-1 (breast carcinoma); [3]) [µM]	IC50 [1, 4] [µM]	IC50 [2, 5] [µM]	IC50 (MX-1 (breast carcinoma); Homo sapiens, MX1, 72 h) [µM]	IC50 ([1]; Homo sapiens, DLD-1, 96 h) [µM]	IC50 ([2]; Homo sapiens, LNCaP, 96 h) [µM]
O=C(Nc1cc(CS(=O)(=O)CCOP(=O)(N(CCCl)CCCl)N(CCCl)CCCl)cc(CS(=O)(=O)CCOP(=O)(N(CCCl)CCCl)N(CCCl)CCCl)c1)c1cccnc1 [Compound 22B]	7	2.5	40.8	–	–	–
O=P(OCCS(=O)(=O)c1cccc2c(S(=O)(=O)CCOP(=O)(N(CCCl)CCCl)N(CCCl)CCCl)cccc12)(N(CCCl)CCCl)N(CCCl)CCCl [Compound 23B, 1,5-di[[2-[[bis[bis(2-chloroethyl)amino]phosphinyl]oxy]ethyl]sulfonyl]naphthalene]	–	–	–	1.1	0.7	3.8
O=C(CS(=O)(=O)CCOP(=O)(N(CCCl)CCCl)N(CCCl)CCCl)Nc1ccccn1 [Compound 24A]	11.2	5.5	12.1	–	–	–
CC(C)(C)OC(=O)[C@@H](Cc1ccccc1)NC(=O)CS(=O)(=O)CCOP(=O)(N(CCCl)CCCl)N(CCCl)CCCl [Compound 25A]	5.6	3.7	18.9	–	–	–
O=C(CS(=O)(=O)CCOP(=O)(N(CCCl)CCCl)N(CCCl)CCCl)NC(Cc1ccccc1)C(=O)O (stereo not drawn) [Compound 26A]	29.4	8.4	76.8	–	–	–
CC(C)(C)OC(=O)NCCCC[C@H](NC(=O)CS(=O)(=O)CCOP(=O)(N(CCCl)CCCl)N(CCCl)CCCl)C(=O)OC(C)(C)C [Compound 27A]	6.2	3.6	15.5	–	–	–
CN(CC(=O)OC(C)(C)C)C(=O)CS(=O)(=O)CCOP(=O)(N(CCCl)CCCl)N(CCCl)CCCl [Compound 28A]	9	5.1	35.2	–	–	–
O=C(O)CCS(=O)(=O)CCOP(=O)(N(CCCl)CCCl)N(CCCl)CCCl [Compound 29A]	23	11.5	66.4	–	–	–
COC(=O)c1ccc(NC(=O)CS(=O)(=O)CCOP(=O)(N(CCCl)CCCl)N(CCCl)CCCl)cc1 [Compound 30A]	9.1	6.5	13.2	–	–	–
N[C@@H](CCCNC(=O)CS(=O)(=O)CCOP(=O)(N(CCCl)CCCl)N(CCCl)CCCl)C(=O)O [Compound 32A]	41.2	11.3	177	–	–	–
O=C(CS(=O)(=O)CCOP(=O)(N(CCCl)CCCl)N(CCCl)CCCl)Nc1ccc(C(=O)O)cc1 [Compound 33A]	20.6	8.6	98.6	–	–	–
CN(CC(=O)O)C(=O)CS(=O)(=O)CCOP(=O)(N(CCCl)CCCl)N(CCCl)CCCl [Compound 34A]	9	12	97.2	–	–	–
CC(C)(C)OC(=O)CCNC(=O)CS(=O)(=O)CCOP(=O)(N(CCCl)CCCl)N(CCCl)CCCl [Compound 37A]	8	8	28.9	–	–	–
CC(C)(C)OC(=O)CNC(=O)CS(=O)(=O)CCOP(=O)(N(CCCl)CCCl)N(CCCl)CCCl [Compound 38A]	8	7.6	23.3	–	–	–
CC(=O)N[C@@H](CS(=O)(=O)CCOP(=O)(N(CCCl)CCCl)N(CCCl)CCCl)C(=O)O [Compound 73A]	29.6	18	73.2	–	–	–
CC(=O)NC(C(=O)O)C(C)(C)S(=O)(=O)CCOP(=O)(N(CCCl)CCCl)N(CCCl)CCCl (stereo not drawn) [Compound 74A]	46.7	27.2	≥ 200	–	–	–
CC(C)(C(N)C(=O)O)S(=O)(=O)CCOP(=O)(N(CCCl)CCCl)N(CCCl)CCCl (stereo not drawn) [Compound 75A]	33.1	7.6	185	–	–	–

Structure (SMILES)	IC50 (MX-1 (breast carcinoma); [3]) [µM]	IC50 [1, 4] [µM]	IC50 [2, 5] [µM]	IC50 (MX-1 (breast carcinoma); Homo sapiens, MX1, 72 h) [µM]	IC50 ([1]; Homo sapiens, DLD-1, 96 h) [µM]	IC50 ([2]; Homo sapiens, LNCaP, 96 h) [µM]
CC(C)(C(N)C(=O)O)S(=O)(=O)CCOP(=O)(N(CCCl)CCCl)N(CCCl)CCCl (stereo not drawn) [Compound 76A]	23.2	6.6	99.7	–	–	–
N[C@@H](CCS(=O)(=O)CCOP(=O)(N(CCCl)CCCl)N(CCCl)CCCl)C(=O)O [Compound 77A]	21.3	8	140	–	–	–
NC(=O)[C@@H](N)CS(=O)(=O)CCOP(=O)(N(CCCl)CCCl)N(CCCl)CCCl [Compound 78A]	18.8	6.3	≥ 200	–	–	–
COC(=O)[C@H](CS(=O)(=O)CCOP(=O)(N(CCCl)CCCl)N(CCCl)CCCl)NS(=O)(=O)c1ccccc1 [Compound 80A]	27.1	10.7	80.2	–	–	–
COC(=O)[C@H](CS(=O)(=O)CCOP(=O)(N(CCCl)CCCl)N(CCCl)CCCl)NS(=O)(=O)c1ccc(Cl)cc1 [Compound 81A]	33.3	6.9	86.6	–	–	–
N[C@@H](CS(=O)(=O)CCOP(=O)(N(CCCl)CCCl)N(CCCl)CCCl)C(=O)OCc1ccccc1 [Compound 82A]	27.9	7.7	59.8	–	–	–
CC(C)(C)OC(=O)N[C@@H](CS(=O)(=O)CCOP(=O)(N(CCCl)CCCl)N(CCCl)CCCl)C(=O)N1CCOCC1 [Compound 83A]	12.9	6.7	27.8	–	–	–
CC(C)NC(=O)[C@H](CS(=O)(=O)CCOP(=O)(N(CCCl)CCCl)N(CCCl)CCCl)NC(=O)OC(C)(C)C [Compound 84A]	10.6	6	29.6	–	–	–
CC(C)(C)OC(=O)N[C@@H](CS(=O)(=O)CCOP(=O)(N(CCCl)CCCl)N(CCCl)CCCl)C(=O)N1CCN(C(=O)c2ccco2)CC1 [Compound 85A]	11.8	8.8	41.1	–	–	–
CC(C)(C)OC(=O)N[C@@H](CS(=O)(=O)CCOP(=O)(N(CCCl)CCCl)N(CCCl)CCCl)C(=O)NCCO [Compound 86A]	25.1	10.3	73.5	–	–	–
N[C@@H](CS(=O)(=O)CCOP(=O)(N(CCCl)CCCl)N(CCCl)CCCl)C(=O)N1CCOCC1 [Compound 87A]	19.5	9.7	136	–	–	–
N[C@@H](CS(=O)(=O)CCOP(=O)(N(CCCl)CCCl)N(CCCl)CCCl)C(=O)NCCO [Compound 88A]	17.9	9.5	126	–	–	–
CC(C)NC(=O)[C@@H](N)CS(=O)(=O)CCOP(=O)(N(CCCl)CCCl)N(CCCl)CCCl [Compound 89A]	22.2	8.5	140	–	–	–
N[C@@H](CS(=O)(=O)CCOP(=O)(N(CCCl)CCCl)N(CCCl)CCCl)C(=O)N1CCN(C(=O)c2ccco2)CC1 [Compound 90A]	23.8	10.4	≥ 200	–	–	–
O=C(NCc1ccccc1)[C@H](CS(=O)(=O)CCOP(=O)(N(CCCl)CCCl)N(CCCl)CCCl)NS(=O)(=O)c1ccccc1 [Compound 91A]	10.7	4.8	33.3	–	–	–
CC(C)NC(=O)[C@H](CS(=O)(=O)CCOP(=O)(N(CCCl)CCCl)N(CCCl)CCCl)NS(=O)(=O)c1ccccc1 [Compound 92A]	14.7	7.3	36.1	–	–	–

Source: patent publication US8093231B2, “Sulfonylethyl phosphorodiamidates” (Telik, Inc., priority 2004, dated 2012)
